Where two headings read alike, the source gives them in different places.
Key:
[1] = test system: A. galli (intestinal roundworm of chicken) larval stage 3; O. dentatum (nodular worm of swine) larval stages 3 and 4; experiment: Activity against Ascaridia galli and Oesophagostomum dentatum larvae in vitro (minimum effective concentration); format: cell-based
[2] = test system: Haemonchus contortus; experiment: Efficacy against Haemonchus contortus in jirds; format: in vivo, jirds (Meriones unguiculatus); conditions: 72 h, read-out: % Reduction in H.
Experimental: Anthelmintic effects of compounds of this invention were tested in vivo using Haemonchus contuortus in jirds (Meriones unguiculatus). The jirds were orally infected with approximately 750-3,000 third-stage larvae of Haemonchus contortus. Ten days after infection, the jirds in the treatment groups were treated once orally or subcutaneously at a dose of 2, 10, and/or 50 mg per kg bodyweight. Three days after treatment, the jirds were necropsied, and the larvae burden in the stomach is determined. The efficacy is defined as the reduction of the mean larvae count in the jirds of the treatment groups in comparison to the infected jirds in the untreated negative control group.

[3] = read-out: MEC (minimum effective concentration) against one or more of the tested nematodes, in vitro, one or more of A. galli L3, O. dentatum L3, L4, threshold 1 μM
[4] = read-out: MEC (minimum effective concentration) against one or more of the tested nematodes, in vitro, one or more of A. galli L3, O. dentatum L3, L4, threshold 7 μM
[5] = read-out: MEC (minimum effective concentration) against two or more of the tested nematodes, in vitro, two or more of A. galli L3, O. dentatum L3, L4, threshold 1 μM
[6] = in vitro, one or more of A. galli L3, O. dentatum L3, L4, threshold 1 μM, read-out: MEC (minimum effective concentration) against one or more of the tested nematodes
[7] = in vitro, one or more of A. galli L3, O. dentatum L3, L4, threshold 7 μM, read-out: MEC (minimum effective concentration) against one or more of the tested nematodes
[8] = in vitro, two or more of A. galli L3, O. dentatum L3, L4, threshold 1 μM, read-out: MEC (minimum effective concentration) against two or more of the tested nematodes
[9] = jirds, 50 mg/kg, oral, single treatment, larvae burden in stomach 3 days after treatment
[10] = sc, jirds, 50 mg/kg, subcutaneous, single treatment, larvae burden in stomach 3 days after treatment

| SMILES | minimal effective concentration [1, 3] [µM] | minimal effective concentration [1, 4] [µM] | minimal effective concentration [1, 5] [µM] | inhibition in vivo at 50 mg/kg ([2]; po) [%] | inhibition in vivo at 50 mg/kg ([2]; sc) [%] | inhibition in vivo at 50 mg/kg [2, 9] [%] | inhibition in vivo at 50 mg/kg [2, 10] [%] | other results |
| --- | --- | --- | --- | --- | --- | --- | --- | --- |
| O=C(CCN1CCC(c2ccc(C(F)(F)F)cc2)CC1)N1CCC(Nc2ccc([N+](=O)[O-])c(C(F)(F)F)c2)CC1 [Example 14, 1-[4-(4-nitro-3-trifluoromethyl-phenylamino)-piperidin-1-yl]-3-[4-(4-trifluoromethyl-phenyl)-piperidin-1-yl]-propan-1-one] | < 1 | < 7 | < 1 | 87 | 99 | – | – | – |
| O=C(CCN1CCN(c2nnc(C(F)(F)F)s2)CC1)N1CCC(Nc2ccc([N+](=O)[O-])c(C(F)(F)F)c2)CC1 [Example 124, 1-[4-(4-nitro-3-trifluoromethyl-phenylamino)-piperidin-1-yl]-3-[4-(5-trifluoromethyl-1,3,4-thiadiazol-2-yl)-piperazin-1-yl]-propan-1-one] | < 1 | < 7 | < 1 | – | – | – | – | inhibition in vivo at 10 mg/kg ([2]; po): 47%; inhibition in vivo at 10 mg/kg ([2]; sc): 75% |
| CC(CN1CCN(c2ccc(Cl)cc2)CC1)C(=O)N1CCC(Nc2ccc([N+](=O)[O-])c(C(F)(F)F)c2)CC1 (stereo not shown) [Example 61, 3-[4-(4-chloro-phenyl)-piperazin-1-yl]-2-methyl-1-[4-(4-nitro-3-trifluoromethyl-phenylamino)-piperidin-1-yl]-propan-1-one] | < 1 | < 7 | < 1 | 100 | 100 | – | – | – |
| Cn1nnc(-c2ccc(NC3CCN(C(=O)CCN4CCN(c5ccc(C(C)(C)C)cc5)CC4)CC3)cc2)n1 [Example 444] | – | – | – | – | – | 78 | 52 | minimal effective concentration [1, 6]: < 1 µM; minimal effective concentration [1, 7]: < 7 µM; minimal effective concentration [1, 8]: < 1 µM |
| O=C(CCN1CCN(c2ccc(C(F)(F)F)nc2)CC1)N1CCC(Nc2ccc([N+](=O)[O-])c(C(F)(F)F)c2)CC1 [Example 126, 1-[4-(4-nitro-3-trifluoromethyl-phenylamino)-piperidin-1-yl]-3-[4-(6-trifluoromethyl-pyridin-3-yl)-piperazin-1-yl]-propan-1-one] | < 1 | < 7 | < 1 | – | – | – | – | inhibition in vivo at 10 mg/kg ([2]; po): 64%; inhibition in vivo at 10 mg/kg ([2]; sc): 86% |
| Cc1ccc(N2CCC(CN(C)C(=O)N3CCC(Nc4ccc([N+](=O)[O-])c(C(F)(F)F)c4)CC3)CC2)cc1 [Example 566] | – | – | – | – | – | 83 | 93 | – |
| CC(C)(C)c1ccc(N2CCN(CCC(=O)N3CCC(Nc4ccc(C#N)c(C(F)(F)F)c4)CC3)CC2)cc1 [Example 324] | – | – | < 1 | 89 | 90 | – | – | – |
| CCOC(=O)c1ccc(NC2CCN(C(=O)CCN3CCN(c4ccc(C(C)(C)C)cc4)CC3)CC2)cc1 [Example 334] | – | – | – | – | – | 78 | 82 | minimal effective concentration [1, 6]: < 1 µM; minimal effective concentration [1, 8]: < 1 µM |
| O=C(CCCN1CCN(c2ccc(C(F)(F)F)cn2)CC1)N1CCC(Nc2ccc([N+](=O)[O-])c(C(F)(F)F)c2)CC1 [Example 151, 1-[4-(4-nitro-3-trifluoromethyl-phenylamino)-piperidin-1-yl]-4-[4-(5-trifluoromethyl-pyridin-2-yl)-piperazin-1-yl]-butan-1-one] | < 1 | < 7 | < 1 | – | – | – | – | inhibition in vivo at 10 mg/kg ([2]; po): 88%; inhibition in vivo at 10 mg/kg ([2]; sc): 84% |
| O=C(CCN1CCN(c2ccc(OCc3ccccc3)cc2)CC1)N1CCC(Oc2ccc([N+](=O)[O-])c(C(F)(F)F)c2)CC1 [Example 58, 3-[4-(4-benzyloxy-phenyl)-piperazin-1-yl]-1-[4-(4-nitro-3-trifluoromethyl-phenoxy)-piperidin-1-yl]-propan-1-one] | – | – | – | 0 | 59 | – | – | – |
| CC(C)COc1ccc(N2CCN(CCC(=O)N3CCC(Nc4ccc([N+](=O)[O-])c(C(F)(F)F)c4)CC3)CC2)cc1 [Example 26, 3-[4-(4-isobutoxy-phenyl)-piperazin-1-yl]-1-[4-(4-nitro-3-trifluoromethyl-phenylamino)-piperidin-1-yl]-propan-1-one] | < 1 | < 7 | < 1 | 64 | 91 | – | – | – |
| O=C(CCCN1CCN(c2ccc(C(F)(F)F)cc2)CC1)N1CCC(Nc2ccc([N+](=O)[O-])c(C(F)(F)F)c2)CC1 [Example 89, 1-[4-(4-nitro-3-trifluoromethyl-phenylamino)-piperidin-1-yl]-4-[4-(4-trifluoromethyl-phenyl)-piperazin-1-yl]-butan-1-one] | – | – | – | – | – | – | – | inhibition in vivo at 10 mg/kg ([2]; po): 99%; inhibition in vivo at 10 mg/kg ([2]; sc): 98% |
| Cn1nnc(-c2ccc(NC3CCN(C(=O)CCCN4CCN(c5ccc(C(F)(F)F)cc5)CC4)CC3)cc2)n1 [Example 21, 1-{4-[4-(2-methyl-1H-tetrazol-5-yl)-phenylamino]-piperidin-1-yl}-4-[4-(4-trifluoromethyl-phenyl)-piperazin-1-yl]-butan-1-one] | < 1 | < 7 | < 1 | 95 | 38 | – | – | – |
| O=C(COC1CCN(c2ccc(C(F)(F)F)cc2)CC1)N1CCC(Nc2ccc([N+](=O)[O-])c(C(F)(F)F)c2)CC1 [Example 12, 1-[4-(4-nitro-3-trifluoromethyl-phenylamino)-piperidin-1-yl]-2-[1-(4-trifluoromethyl-phenyl)-piperidin-4-yloxy]-ethanone] | < 1 | < 7 | < 1 | 96 | 100 | – | – | – |
| CCCc1ccc(C2CCN(CCC(=O)N3CCC(Oc4ccc([N+](=O)[O-])c(OCC(C)C)c4)CC3)CC2)cc1 [Example 532] | – | – | – | – | – | 90 | 99 | – |
| Cc1cc(NC2CCN(C(=O)CCCN3CCN(c4ccc(C(F)(F)F)cc4)CC3)CC2)ncc1[N+](=O)[O-] [Example 71, 1-[4-(4-methyl-5-nitro-pyridin-2-ylamino)-piperidin-1-yl]-4-[4-(4-trifluoromethyl-phenyl)-piperazin-1-yl]-butan-1-one] | < 1 | < 7 | < 1 | 55 | 35 | – | – | – |
| O=C(CCCN1CCN(c2ccc(C(F)(F)F)cc2)CC1)N1CCC(Nc2ccc(S(=O)(=O)c3ccc(F)cc3)cc2)CC1 [Example 33, 1-{4-[4-(4-fluoro-benzenesulfonyl)-phenylamino]-piperidin-1-yl}-4-[4-(4-trifluoromethyl-phenyl)-piperazin-1-yl]-butan-1-one] | < 1 | < 7 | < 1 | 55 | 69 | – | – | – |
| CC(C)(C)c1ccc(N2CCN(CCCC(=O)N3CCC(Nc4ccc(C#N)c(Cl)c4)CC3)CC2)cc1 [Example 322] | – | – | < 1 | 67 | 73 | – | – | – |
| CN(CC1CCN(c2ccccc2)CC1)C(=O)N1CCC(Nc2ccc([N+](=O)[O-])c(C(F)(F)F)c2)CC1 [Example 565] | – | – | – | – | – | 70 | 90 | – |
| COc1cc(NC2CCN(C(=O)CCN3CCN(c4ccc(Cl)cc4)CC3)CC2)ccc1[N+](=O)[O-] [Example 385] | – | – | – | – | – | 0 | 83 | minimal effective concentration [1, 6]: < 1 µM; minimal effective concentration [1, 7]: < 7 µM; minimal effective concentration [1, 8]: < 1 µM |
| CC(CN1CCN(c2ccc(Cl)cc2)CC1)C(=O)N1CCC(Nc2ccc(C#N)c(C(F)(F)F)c2)CC1 (stereo not shown) [Example 581] | – | – | – | 68 | 10 | – | – | – |
| CCOc1cc(NC2CCN(C(=O)CCN3CCC(c4ccc(Cl)cc4)CC3)CC2)ccc1[N+](=O)[O-] [Example 414] | – | – | – | – | – | 0 | 98 | – |
| CC(CN1CCN(c2ccc(C(F)(F)F)cc2)CC1)C(=O)N1CCC(Nc2ccc(C#N)c(C(F)(F)F)c2)CC1 (stereo not shown) [Example 92, 4-(1-{2-methyl-3-[4-(4-trifluoromethyl-phenyl)-piperazin-1-yl]-propionyl}-piperidin-4-ylamino)-2-trifluoromethyl-benzonitrile] | – | – | – | – | – | 100 | 91 | – |
| CC(C)(C)c1ccc(N2CCC(OCC(=O)N3CCC(Nc4ccc([N+](=O)[O-])c(C(F)(F)F)c4)CC3)CC2)cc1 [Example 416] | – | – | – | – | – | 88 | 98 | – |
